Measured values taken from patent US11273172B2, “Synergistic combination of oligonucleotides and chemotherapeutic for treating cancer” (THE BOARD OF TRUSTEES OF THE UNIVERSITY OF ILLINOIS, priority 2017, dated 2022).
Values joined by “and” are separate entries in the source; they are usually repeats but may differ in a detail not shown here. Equal entries are not always repeated.

B1: TRAIL: cytotoxic protein which induces apoptosis in tumor cells, but not in normal cells (protein, UniProt P50591 1-281, looked up)
Tumor necrosis factor ligand …: MAMMEVQGGPSLGQTCVLIVIFTVLLQSLCVAVTYVYFTNELKQMQDKYSKSGIACFLKEDDSYWDPNDEESMNSPCWQVKWQLRQLVRKMILRTSEETISTVQEKQQNISPLVRERGPQRVAAHITGTRGRSNTLSSPNSKNEKALGRKINSWESSRSGHSFLSNLHLRNGELVIHEKGFYYIYSQTYFRFQEEIKENTKNDKQMVQYIYKYTSYPDPILLMKSARNSCWSKDAEYGLYSIYQGGIFELKENDRIFVSVTNEHLIDMDHEASFFGAFLVG

What was measured:
Test in all cases: MTT cell death assay, chemotherapeutic with and without MADD siRNA knockdown
H522 lung cancer cells = assay type: cell-based; conditions: siRNA 10 nM
Procedure: (§1) Cells are cultured and maintained at 37° C. in a humidified atmosphere containing 5% CO2 as described above. On Day 0, Cells are seeded in […] tissue culture dishes (Corning; Cat Number: 353003) to attain 60-70% confluence. In parallel, cells are also seeded in one 96-well plate (Corning; Cat number: 353072) for analysis of survival before reseeding. After 12-18 hours (Day 1), cells are transfected with Scramble or MADD siRNA at 10 nM concentration. The sequences of siRNAs (double-stranded) used are:
(§2) On Day 4, when cells are properly adhered and retained their shape in 96-well plates, drugs are added. All drugs are diluted in complete media on the same day prior to the addition to the cells. In untreated cells, media is replaced with complete media. Two hundred μl volume of media (with or without drugs) is used for the drug treatment assay. Plates are incubated 24 hours, 48 hours and 72 hours at 37° C. in humidified CO2 incubator.
(§3) An MTT assay is performed to determine relative survival after drug treatment as described above. MTT (3-[4,5-Dimethylthiazol-2-yl]-2,5-diphenyltetrazolium bromide; Thiazolyl blue) is purchased from Sigma Aldrich (Cat number: M5655). MTT is dissolved in sterile DPBS at the concentration of 5 mg/ml and filtered through […] syringe filter (Corning; Cat number: 431220). Ten μl of MTT solution is added per well of 96-well plate. Plates are incubated for 2 hours at 37° C. in the humidified CO2 incubator. After 2 hours, media is aspirated using vacuum inside the biosafety hood. Purple colored crystals formed in viable cells are dissolved by adding 100 μl of Dimethyl sulfoxide (Thermo Fisher Scientific; Cat number D128-500) Plates are kept on shaker for 10 minutes for compete dissolution of crystals and absorbance is recorded at 595 nm using Bio-Rad iMark microplate reader. Data is analyzed in MICROSOFT EXCEL® software. Relative survival is calculated with respect to absorbance of control (untreated cells) to determine the effect of transfection as well as combination treatment.
(§4) Each data set takes into account any spontaneous cell death which is observed upon transfection with Scramble siRNA; the amount of spontaneous cell death from Scramble siRNA transfection (baseline) is subtracted from the amount of cell death observed in each siRNA transfection reaction to yield a Net Percent (Net %) cell death after accounting for Scrambled siRNA-induced cell death.
as §1, with “(double stranded)” for “(double-stranded)”
as §3, with “D128-500).” for “D128-500)”, “Relative survival is calculated with respect to absorbance of control (untreated cells) to determine the effect of transfection as well as combination treatment.” left out

[1] = tested on: OVCAR3 ovarian cancer cells; assay type: cell-based; conditions: siRNA 10 nM
Procedure: as §1, §2, §3, §4
as §1, with “(double stranded)” for “(double-stranded)”
as §3, with “D128-500).” for “D128-500)”, “Relative survival is calculated with respect to absorbance of control (untreated cells) to determine the effect of transfection as well as combination treatment.” left out

[2] = tested on: C643 thyroid cancer cells; assay type: cell-based, human; conditions: Sorafinib 0.975 μM, siRNA 10 nM, 48 hours post Sorafinib treatment
Procedure: as §1, §2, §3, §4

[3] = tested on: K562 chronic myelogenous leukemia cells; assay type: cell-based; conditions: siRNA 10 nM
Procedure: as §1, §2, §3, §4
as §1, with “(double stranded)” for “(double-stranded)”
as §2, with “added. Doxorubicin was added at a working concentration of 5.0 nM, 9.375 nM, 0.075 μM, 0.25 μM, 0.5 μM, and 0.8 μM.” for “added.”
(§5) An MTT assay is performed to determine relative survival after drug treatment as described above. MTT (3-[4,5-Dimethylthiazol-2-yl]-2,5-diphenyltetrazolium bromide; Thiazolyl blue) is purchased from Sigma Aldrich (Cat number: M5655). MTT is dissolved in sterile DPBS at the concentration of 5 mg/ml and filtered through […] syringe filter (Corning; Cat number: 431220). Ten μl of MTT solution is added per well of 96-well plate. Plates are incubated for 2 hours at 37° C. in the humidified CO2 incubator. […]

[4] = tested on: SU.86.86 pancreatic cancer cells; assay type: cell-based; conditions: siRNA 10 nM
Procedure: as §1, §2, §3, §4
as §1, with “(double stranded)” for “(double-stranded)”
as §2, with “added. Doxorubicin was added at a working concentration of 5.0 nM, 9.375 nM, 0.075 μM, 0.25 μM, 0.5 μM, and 0.8 μM.” for “added.”
as §5

H2227 lung cancer cells = assay type: cell-based; conditions: siRNA 10 nM
Procedure: as §1, §2, §3, §4
as §1, with “(double stranded)” for “(double-stranded)”
as §2, with “added. Doxorubicin was added at a working concentration of 5.0 nM, 9.375 nM, 0.075 μM, 0.25 μM, 0.5 μM, and 0.8 μM.” for “added.”
as §5

[5] = Sorafinib 1.56 μM, 48 hours post Sorafinib treatment
[6] = Sorafinib 5 μM, 48 hours post Sorafinib treatment
[7] = Sorafinib 0.3125 μM, 72 hours post Sorafinib treatment
[8] = Sorafinib 1.25 μM, 48 hours post Sorafinib treatment
[9] = Sorafinib 1.25 μM, 72 hours post-Sorafinib treatment
[10] = Sorafinib 5 μM, 24 hours post Sorafinib treatment
[11] = Sorafinib 3 μM, 48 hours post Sorafinib treatment
[12] = Gemcitabine 8.2 nM, 48 hours post Gemcitabine treatment
[13] = TRAIL 100 ng/ml, 48 hours post TRAIL treatment
[14] = Gemcitabine 0.0125 μM, 72 hours post Gemcitabine treatment
[15] = Gemcitabine 0.1 μM, 48 hours post Gemcitabine treatment
[16] = Doxorubicin 0.25 μM, 72 hours post Doxorubicin treatment
[17] = Doxorubicin 0.5 μM, 48 hours post Doxorubicin treatment
[18] = TRAIL 6.25 ng/ml, 72 hours post TRAIL treatment
[19] = TRAIL 12.5 ng/ml, 48 hours post TRAIL treatment
[20] = Doxorubicin 5 nM, 24 hours post Doxorubicin treatment
[21] = Doxorubicin 9.375 nM, 48 hours post Doxorubicin treatment
[22] = Gemcitabine 25 nM, 48 hours post Gemcitabine treatment

Molecule | Net % cell death after accounting for Scrambled siRNA (H522 lung cancer cells; [5]) | Observed % Cell death (H522 lung cancer cells; [5]) [%] | Net % cell death after accounting for Scrambled siRNA [1, 6] | Observed % Cell death [1, 6] [%] | Net % cell death after accounting for Scrambled siRNA [2] | Observed % Cell death [2] [%] | Net % cell death after accounting for Scrambled siRNA [3, 7] | Observed % Cell death [3, 7] [%] | Net % cell death after accounting for Scrambled siRNA [3, 8] | Observed % Cell death [3, 8] [%] | Net % cell death after accounting for Scrambled siRNA [4, 9] | Observed % Cell death [4, 9] [%] | Net % cell death after accounting for Scrambled siRNA [4, 10] | Observed % Cell death [4, 10] [%] | Net % cell death after accounting for Scrambled siRNA (H2227 lung cancer cells; [11]) | Observed % Cell death (H2227 lung cancer cells; [11]) [%] | Observed % Cell death (H522 lung cancer cells; [13]) [%] | Net % cell death after accounting for Scrambled siRNA [3, 18] | Observed % Cell death [3, 18] [%] | Observed % Cell death [3, 19] [%] | further results
CNC(=O)c1cc(Oc2ccc(NC(=O)Nc3ccc(Cl)c(C(F)(F)F)c3)cc2)ccn1 [Sorafinib] | 0% | 0 | 17% | 17 | 3% | 3 | 0% | 0 | 0% | 0 | 0% | 0 | 17% | 17 | 18% | 18 |  |  |  |  | 
MADD siRNA: siRNA targeting exon 13L of the MADD splice variant of the IG20 gene; SEQ ID NO: 4, 5′-GAUUGUCAUAGAUUCGCCGTT-3′ (chemistry not given here) |  | 37 |  | 19 | 13% and 14 − 1 = 13% | 14 | 47% and 59 − 12 = 47% | 59 |  | 53 |  | 41 | 0% and 9 − 11 = 0% | 9 |  | 35 | 37 | 47% and 59 − 12 = 47% | 59 | 53 | Observed % Cell death (H522 lung cancer cells; [12]): 37%; Observed % Cell death [1, 14]: 23%; Observed % Cell death [1, 15]: 19%; Net % cell death after accounting for Scrambled siRNA [3, 16]: 47% and 59 − 12 = 47%; Observed % Cell death [3, 16]: 59%; Observed % Cell death [3, 17]: 53%; Net % cell death after accounting for Scrambled siRNA [4, 20]: 0% and 9 − 11 = 0%; Observed % Cell death [4, 20]: 9%; Observed % Cell death (H2227 lung cancer cells; [21]): 35%; Observed % Cell death (H2227 lung cancer cells; [22]): 35%
Scrambled siRNA: non-specific Scramble siRNA, negative control; SEQ ID NO: 5, 5′-UUGCUAAGCGUCGGUCAAUTT-3′ (chemistry not given here) | 30 − 30 = 0% | 30 | 17 − 17 = 0% | 17 | 1 − 1 = 0% | 1 | 12 − 12 = 0% | 12 | 49 − 49 = 0% | 49 | 28 − 28 = 0% | 28 | 11 − 11 = 0% | 11 | 28 − 28 = 0% | 28 | 30 | 12 − 12 = 0% | 12 | 49 | Net % cell death after accounting for Scrambled siRNA (H522 lung cancer cells; [12]): 30 − 30 = 0%; Observed % Cell death (H522 lung cancer cells; [12]): 30%; Net % cell death after accounting for Scrambled siRNA (H522 lung cancer cells; [13]): 30 − 30 = 0%; Net % cell death after accounting for Scrambled siRNA [1, 14]: 26 − 26 = 0%; Observed % Cell death [1, 14]: 26%; Net % cell death after accounting for Scrambled siRNA [1, 15]: 17 − 17 = 0%; Observed % Cell death [1, 15]: 17%; Net % cell death after accounting for Scrambled siRNA [3, 16]: 12 − 12 = 0%; Observed % Cell death [3, 16]: 12%; Net % cell death after accounting for Scrambled siRNA [3, 17]: 49 − 49 = 0%; Observed % Cell death [3, 17]: 49%; Net % cell death after accounting for Scrambled siRNA [3, 19]: 49 − 49 = 0%; Net % cell death after accounting for Scrambled siRNA [4, 20]: 11 − 11 = 0%; Observed % Cell death [4, 20]: 11%; Net % cell death after accounting for Scrambled siRNA (H2227 lung cancer cells; [21]): 28 − 28 = 0%; Observed % Cell death (H2227 lung cancer cells; [21]): 28%; Net % cell death after accounting for Scrambled siRNA (H2227 lung cancer cells; [22]): 28 − 28 = 0%; Observed % Cell death (H2227 lung cancer cells; [22]): 28%
B1 |  |  |  |  |  |  |  |  |  |  |  |  |  |  |  |  | 0 | 0% | 0 | 0 | Net % cell death after accounting for Scrambled siRNA (H522 lung cancer cells; [13]): 0%; Net % cell death after accounting for Scrambled siRNA [3, 19]: 0%
